From patent publication US20240239752A1, “BICYCLIC HETEROAROMATIC INHIBITORS OF KLK5” (BioCryst Pharmaceuticals, Inc., priority 2021, published 2024) come the findings set out here.

The target in this test is T1, recombinant human KLK5 (Homo sapiens, UniProt Q9Y337).
T1 construct: purchased Novoprotein or R&D Systems C415 or 1108-SE
T1 sequence (Q9Y337 23-293): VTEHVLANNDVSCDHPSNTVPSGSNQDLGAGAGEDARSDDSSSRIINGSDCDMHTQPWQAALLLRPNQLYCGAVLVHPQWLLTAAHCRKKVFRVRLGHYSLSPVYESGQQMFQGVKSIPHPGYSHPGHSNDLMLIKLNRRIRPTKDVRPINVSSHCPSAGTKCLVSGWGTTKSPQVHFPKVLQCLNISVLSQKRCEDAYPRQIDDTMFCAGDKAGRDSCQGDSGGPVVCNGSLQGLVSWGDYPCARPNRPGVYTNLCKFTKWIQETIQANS
As to the kind of experiment: Kallikrein (KLK) 5 enzymatic assay (Boc-VPR-AMC fluorogenic substrate). In kind it is biochemical. The settings on record: recombinant human KLK5 0.1 μg/well, Boc-VPR-AMC 100 μM, pH 7.5, room temperature, 1% DMSO; tested a minimum of three times. Summed up:
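Recombinant human KLK5 (0.1 μg/well) was preincubated with compound at room temperature in 0.1 M NaH2PO4, pH 7.5, 1% DMSO, then started with 100 μM Boc-VPR-AMC. The rate was followed at 380/460 nm, and IC50 came from percent inhibition relative to enzyme alone, with at least three runs.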
For the molecule `Cc1cccc(OCc2cn(C3CCOC3)c3ncc(-c4cccc5c(N)nccc45)cc23)c1CC(=O)O` (centres unmarked) [Compound 294c, 2-(2-((5-(1-aminoisoquinolin-5-yl)-1-(tetrahydrofuran-3-yl)-1H-pyrrolo[2,3-b]pyridin-3-yl)methoxy)-6-methylphenyl)acetic acid], the half-inhibitory concentration (IC50) – broadly, the point on the concentration scale where inhibition reaches its midpoint – was under 1000 nM.
Regarding `Nc1nccc2ccc(-c3ccc4c(c3)c(COc3ccccc3CC(=O)O)nn4CC3CNC3)cc12` [Compound 295c, 2-(2-((5-(1-aminoisoquinolin-7-yl)-1-(azetidin-3-ylmethyl)-1H-indazol-3-yl)methoxy)phenyl)acetic acid], the IC50 was under 1000 nM.
Regarding `Nc1nccc2c(-c3ccc4c(c3)c(COc3ccccc3CC(=O)O)nn4CC3CNC3)cccc12` [Compound 296b, 2-(2-((5-(1-aminoisoquinolin-5-yl)-1-(azetidin-3-ylmethyl)-1H-indazol-3-yl)methoxy)phenyl)acetic acid], the IC50 was under 1000 nM.
Take `Nc1nccc2ccc(-c3ccc4c(c3)c(COc3ccccc3CC(=O)O)nn4C3CCN(CC(=O)O)C3)cc12` (centres unmarked) [Compound 297d, 2-(2-((5-(1-aminoisoquinolin-7-yl)-1-(1-(carboxymethyl)pyrrolidin-3-yl)-1H-indazol-3-yl)methoxy)phenyl)acetic acid]: the IC50 was under 1000 nM.
Consider `Nc1nccc2c(-c3ccc4c(c3)c(COc3ccccc3CC(=O)O)nn4C3CCN(CCO)C3)cccc12` (centres unmarked) [Compound 298c, 2-(2-((5-(1-aminoisoquinolin-5-yl)-1-(1-(2-hydroxyethyl)pyrrolidin-3-yl)-1H-indazol-3-yl)methoxy)phenyl)acetic acid], for which the half-inhibitory concentration (IC50) is under 1000 nM.
As for `Nc1nccc2ccc(-c3ccc4c(c3)c(COc3ccccc3CC(=O)O)nn4C3CCN(CCO)C3)cc12` (centres unmarked) [Compound 299b, 2-(2-((5-(1-aminoisoquinolin-7-yl)-1-(1-(2-hydroxyethyl)pyrrolidin-3-yl)-1H-indazol-3-yl)methoxy)phenyl)acetic acid], the figure is under 1000 nM; as for `COc1c(CN)cccc1-c1cc2c(COc3ccccc3CC(=O)O)cccc2o1` [Compound 300d, 2-(2-((2-(3-(aminomethyl)-2-methoxyphenyl)benzofuran-4-yl)methoxy)phenyl)acetic acid], over 10000 nM; as for `Nc1nccc2c(-c3ccc4c(c3)c(C#Cc3ccccc3CC(=O)O)cn4C3CCOC3)cccc12` (centres unmarked) [Compound 301f, 2-(2-((5-(1-aminoisoquinolin-5-yl)-1-(tetrahydrofuran-3-yl)-1H-indol-3-yl)ethynyl)phenyl)acetic acid], under 1000 nM.
As for `Nc1nccc2c(-c3ccc4c(c3)c(CCc3ccccc3CC(=O)O)cn4C3CCOC3)cccc12` (centres unmarked) [Compound 302b, 2-(2-(2-(5-(1-aminoisoquinolin-5-yl)-1-(tetrahydrofuran-3-yl)-1H-indol-3-yl)ethyl)phenyl)acetic acid], the IC50 was under 1000 nM.
Consider `COCCN1CCC(n2nc(COc3ccccc3CC(=O)O)c3cc(-c4cccc5c(N)nccc45)ccc32)C1` (centres unmarked) [Compound 303c, 2-(2-((5-(1-aminoisoquinolin-5-yl)-1-(1-(2-methoxyethyl)pyrrolidin-3-yl)-1H-indazol-3-yl)methoxy)phenyl)acetic acid], for which the IC50 was under 1000 nM.
Next, `COCCN1CCC(n2nc(COc3ccccc3CC(=O)O)c3cc(-c4ccc5ccnc(N)c5c4)ccc32)C1` (centres unmarked) [Compound 304b, 2-(2-((5-(1-aminoisoquinolin-7-yl)-1-(1-(2-methoxyethyl)pyrrolidin-3-yl)-1H-indazol-3-yl)methoxy)phenyl)acetic acid]: under 1000 nM.
As to `Nc1nccc2c(-c3ccc4c(c3)c(COc3ccccc3CC(=O)O)nn4C3CCN(CC(=O)O)C3)cccc12` (centres unmarked) [Compound 305b, 2-(2-((5-(1-aminoisoquinolin-5-yl)-1-(1-(carboxymethyl)pyrrolidin-3-yl)-1H-indazol-3-yl)methoxy)phenyl)acetic acid], the IC50 is under 1000 nM.
Take `COCCN1CC(Cn2nc(COc3ccccc3CC(=O)O)c3cc(-c4ccc5ccnc(N)c5c4)ccc32)C1` [Compound 306c, 2-(2-((5-(1-aminoisoquinolin-7-yl)-1-((1-(2-methoxyethyl)azetidin-3-yl)methyl)-1H-indazol-3-yl)methoxy)phenyl)acetic acid]: the half-inhibitory concentration (IC50) is under 1000 nM.
For `CC(C)CCN1CC(Cn2nc(COc3ccccc3CC(=O)O)c3cc(-c4ccc5ccnc(N)c5c4)ccc32)C1` [Compound 307c, 2-(2-((5-(1-aminoisoquinolin-7-yl)-1-((1-isopentylazetidin-3-yl)methyl)-1H-indazol-3-yl)methoxy)phenyl)acetic acid], the half-inhibitory concentration (IC50) was under 1000 nM.
For `CC(C)CCN1CC(Cn2nc(COc3ccccc3CC(=O)O)c3cc(-c4cccc5c(N)nccc45)ccc32)C1` [Compound 308b, 2-(2-((5-(1-aminoisoquinolin-5-yl)-1-((1-isopentylazetidin-3-yl)methyl)-1H-indazol-3-yl)methoxy)phenyl)acetic acid], the 50% inhibitory concentration (IC50) was under 1000 nM.
In the case of `CC(C)CCN1CCC(n2nc(COc3ccccc3CC(=O)O)c3cc(-c4ccc5ccnc(N)c5c4)ccc32)C1` (centres unmarked) [Compound 309c, 2-(2-((5-(1-aminoisoquinolin-7-yl)-1-(1-isopentylpyrrolidin-3-yl)-1H-indazol-3-yl)methoxy)phenyl)acetic acid], the concentration for half-maximal inhibition (IC50) is under 1000 nM.
Regarding `CCOC(=O)N1CCC(n2nc(COc3ccccc3CC(=O)O)c3cc(-c4ccc5ccnc(N)c5c4)ccc32)C1` (centres unmarked) [Compound 310c, 2-(2-((5-(1-aminoisoquinolin-7-yl)-1-(1-(ethoxycarbonyl)pyrrolidin-3-yl)-1H-indazol-3-yl)methoxy)phenyl)acetic acid], the IC50 was under 1000 nM.
Next, `CCOC(=O)N1CCC(n2nc(COc3ccccc3CC(=O)O)c3cc(-c4cccc5c(N)nccc45)ccc32)C1` (centres unmarked) [Compound 311b, 2-(2-((5-(1-aminoisoquinolin-5-yl)-1-(1-(ethoxycarbonyl)pyrrolidin-3-yl)-1H-indazol-3-yl)methoxy)phenyl)acetic acid]: under 1000 nM.
For the molecule `CCS(=O)(=O)N1CCC(n2nc(COc3ccccc3CC(=O)O)c3cc(-c4ccc5ccnc(N)c5c4)ccc32)C1` (centres unmarked) [Compound 312c, 2-(2-((5-(1-aminoisoquinolin-7-yl)-1-(1-(ethylsulfonyl)pyrrolidin-3-yl)-1H-indazol-3-yl)methoxy)phenyl)acetic acid], the 50% inhibitory concentration (IC50) was under 1000 nM.
As to `CCS(=O)(=O)N1CCC(n2nc(COc3ccccc3CC(=O)O)c3cc(-c4cccc5c(N)nccc45)ccc32)C1` (centres unmarked) [Compound 313b, 2-(2-((5-(1-aminoisoquinolin-5-yl)-1-(1-(ethylsulfonyl)pyrrolidin-3-yl)-1H-indazol-3-yl)methoxy)phenyl)acetic acid], the IC50 was under 1000 nM.
Take `COc1c(CN)cccc1-c1cc(OC)c2occ(COc3ccccc3CC(=O)O)c2c1` [Compound 324d, 2-(2-((5-(3-(aminomethyl)-2-methoxyphenyl)-7-methoxybenzofuran-3-yl)methoxy)phenyl)acetic acid]: the half-inhibitory concentration (IC50) is over 10000 nM.
As for `COc1c(CN)cccc1-c1ccc2c(c1)c(COc1ccccc1CC(=O)O)nn2C(C)C` [Compound 325b, 2-(2-((5-(3-(aminomethyl)-2-methoxyphenyl)-1-isopropyl-1H-indazol-3-yl)methoxy)phenyl)acetic acid], the figure is under 1000 nM; as for `COc1c(-c2ccc3c(c2)c(COc2ccccc2CC(=O)O)nn3C(C)C)ccnc1CN` [Compound 326d, 2-(2-((5-(2-(aminomethyl)-3-methoxypyridin-4-yl)-1-isopropyl-1H-indazol-3-yl)methoxy)phenyl)acetic acid], under 1000 nM.
On to `COc1c(-c2ccc3c(c2)c(COc2ccccc2CC(=O)O)nn3C2CCCC2)ccnc1CN` [Compound 327d, 2-(2-((5-(2-(aminomethyl)-3-methoxypyridin-4-yl)-1-cyclopentyl-1H-indazol-3-yl)methoxy)phenyl)acetic acid], for which the concentration for half-maximal inhibition (IC50) is under 1000 nM.
In the case of `COc1c(-c2ccc3c(c2)c(COc2ccccc2CC(=O)O)nn3C2CCC2)ccnc1CN` [Compound 328d, 2-(2-((5-(2-(aminomethyl)-3-methoxypyridin-4-yl)-1-cyclobutyl-1H-indazol-3-yl)methoxy)phenyl)acetic acid], the concentration for half-maximal inhibition (IC50) is 1000 to 10000 nM.
`COc1c(-c2cc3c(COc4ccccc4CC(=O)O)cccc3o2)ccnc1CN` [Compound 329d, 2-(2-((2-(2-(aminomethyl)-3-methoxypyridin-4-yl)benzofuran-4-yl)methoxy)phenyl)acetic acid]: the IC50 was 1000 to 10000 nM.
Regarding `CCOC(=O)N1CC[C@@H](n2nc(COc3ccccc3CC(=O)O)c3cc(-c4cccc5c(N)nccc45)ccc32)C1` [Compound 340i, (R)-2-(2-((5-(1-aminoisoquinolin-5-yl)-1-(1-(ethoxycarbonyl)pyrrolidin-3-yl)-1H-indazol-3-yl)methoxy)phenyl)acetic acid], the IC50 was under 1000 nM.
With `CCOC(=O)N1CC[C@@H](n2nc(COc3cccc(C)c3CC(=O)O)c3cc(-c4cccc5c(N)nccc45)ccc32)C1` [Compound 341e, (R)-2-(2-((5-(1-aminoisoquinolin-5-yl)-1-(1-(ethoxycarbonyl)pyrrolidin-3-yl)-1H-indazol-3-yl)methoxy)-6-methylphenyl)acetic acid], the 50% inhibitory concentration (IC50) was under 1000 nM.
With `CCOC(=O)N1CC[C@@H](n2nc(COc3ccccc3CC(=O)O)c3cc(-c4ccc5ccnc(N)c5c4)ccc32)C1` [Compound 342b, (R)-2-(2-((5-(1-aminoisoquinolin-7-yl)-1-(1-(ethoxycarbonyl)pyrrolidin-3-yl)-1H-indazol-3-yl)methoxy)phenyl)acetic acid], the IC50 is under 1000 nM.
